This note sets out measurements from ChEMBL document CHEMBL1139716, “Naphtho[2,3-b][1,4]-thiazine-5,10-diones and 3-substituted-1,4-dioxo-1,4-dihydronaphthalen-2-yl-thioalkanoate derivatives: synthesis and biological evaluation as potential antibacterial and antifungal agents” (Bioorg Med Chem Lett, 2006).

Converted amounts (≈) assume the structure as drawn.

One test concerns Enterococcus faecalis. Briefly: Antibacterial activity against Streptococcus faecalis by broth microdilution technique. The class given is functional, organism-based. In general terms: In broth dilution the organism is exposed to a series of concentrations in liquid medium.
Another test concerns Trichophyton benhamiae. Briefly: Antifungal activity against Trichophyton mentagrophytes by broth microdilution technique. The class given is functional, organism-based, Arthroderma benhamiae.
The next test concerns Pseudomonas aeruginosa. Description: Antibacterial activity against Pseudomonas aeruginosa by broth microdilution technique. The class given is functional, organism-based.
A further test has as its system Escherichia coli. Briefly: Antibacterial activity against Escherichia coli by broth microdilution technique. The class given is functional, organism-based.
The test system of another test is Aspergillus fumigatus. Description: Antifungal activity against Aspergillus fumigatus by broth microdilution technique. It counts as functional, organism-based.
In a further test the test system is Klebsiella pneumoniae. Description: Antibacterial activity against Klebsiella pneumoniae by broth microdilution technique. The class given is functional, organism-based.
The next test concerns Staphylococcus aureus. Description: Antibacterial activity against Staphylococcus aureus by broth microdilution technique. It counts as functional, organism-based.
The subject of a further test is Sporothrix schenckii. Briefly: Antifungal activity against Sporothrix schenckii by broth microdilution technique. It counts as functional, organism-based.
For a further test, the system named is Cryptococcus neoformans. Description: Antifungal activity against Cryptococcus neoformans by broth microdilution technique. The class given is functional, organism-based.
A further test relates to Candida albicans. Briefly: Antifungal activity against Candida albicans by broth microdilution technique. It counts as functional, organism-based.
The next test concerns Candida parapsilosis. Description: Antifungal activity against Candida parapsilosis ATCC 22019 by broth microdilution technique. It counts as functional, organism-based. The conditions noted are these: Lodderomyces parapsilosis.
Where [1] appears, read: Enterococcus faecalis, read-out: IC50.
Where [2] appears, read: Pseudomonas aeruginosa, read-out: IC50.
[3] abbreviates: Escherichia coli, read-out: IC50.
The mark [4] stands for this setting: Klebsiella pneumoniae, read-out: IC50.
Where [5] appears, read: Staphylococcus aureus, read-out: IC50.

As to `CCOC(=O)CSC1=C(NCc2ccccc2)C(=O)c2ccccc2C1=O`, the MIC (in general, the least concentration at which growth counts as inhibited) against Enterococcus faecalis (Enterococcus faecalis) was more than 50 µg/mL; in the test with Trichophyton benhamiae it was 6.25 µg/mL (≈ 16.4 µM); with Pseudomonas aeruginosa (Pseudomonas aeruginosa) it was more than 50 µg/mL; against Escherichia coli (Escherichia coli), 12.5 µg/mL (≈ 32.8 µM); with Aspergillus fumigatus, more than 50 µg/mL; with Klebsiella pneumoniae (Klebsiella pneumoniae), 25 µg/mL (≈ 65.5 µM). The MIC was 12.5 µg/mL (≈ 32.8 µM) in the test on Staphylococcus aureus (Staphylococcus aureus); more than 50 µg/mL against Sporothrix schenckii; more than 50 µg/mL against Cryptococcus neoformans; more than 50 µg/mL in the test with Candida albicans; more than 50 µg/mL in the test on Candida parapsilosis. Moreover, the IC50 (commonly the midpoint of a concentration-inhibition curve) in the test with Enterococcus faecalis (setting [1]) is more than 50 µg/mL; in the test on Trichophyton benhamiae, 4.5 µg/mL (≈ 11.8 µM); in the test on Pseudomonas aeruginosa (setting [2]) it was more than 50 µg/mL; in the test with Escherichia coli (setting [3]), 9.2 µg/mL (≈ 24.1 µM); in the test on Aspergillus fumigatus it was more than 50 µg/mL; with Klebsiella pneumoniae (setting [4]) it was 22.3 µg/mL (≈ 58.6 µM). The IC50 is 11.6 µg/mL (≈ 30.4 µM) with Staphylococcus aureus (setting [5]); more than 50 µg/mL in the test with Sporothrix schenckii; more than 50 µg/mL in the test on Cryptococcus neoformans; more than 50 µg/mL in the test on Candida albicans; more than 50 µg/mL with Candida parapsilosis.
Take GENTAMICIN [listing 1 of 2 here]: the MIC against Enterococcus faecalis was determined as 0.78 µg/mL; in the test on Pseudomonas aeruginosa, 25 µg/mL; with Escherichia coli it was 0.18 µg/mL; in the test with Klebsiella pneumoniae it was 0.78 µg/mL; with Staphylococcus aureus, 6.25 µg/mL.
In the case of `C[C@@H]1[C@H](O)[C@@H](C)/C=C/C=C/C=C/C=C/C=C/C=C/C=C/[C@H](O[C@@H]2O[C@H](C)[C@@H](O)[C@H](N)[C@@H]2O)C[C@@H]2O[C@](O)(C[C@@H](O)C[C@@H](O)[C@H](O)CC[C@@H](O)C[C@@H](O)CC(=O)O[C@H]1C)C[C@H](O)[C@H]2C(=O)O` [AMPHOTERICIN B], the IC50 was 0.09 µg/mL (≈ 0.0974 µM) in the test on Trichophyton benhamiae; 0.38 µg/mL (≈ 0.411 µM) in the test on Aspergillus fumigatus; 0.08 µg/mL (≈ 0.0866 µM) in the test on Sporothrix schenckii; 0.04 µg/mL (≈ 0.0433 µM) in the test on Cryptococcus neoformans; 0.09 µg/mL (≈ 0.0974 µM) in the test on Candida albicans; 0.11 µg/mL (≈ 0.119 µM) in the test on Candida parapsilosis. Also, the MIC amounted to 0.12 µg/mL (≈ 0.13 µM) in the test on Trichophyton benhamiae; 0.5 µg/mL (≈ 0.541 µM) against Aspergillus fumigatus; 0.12 µg/mL (≈ 0.13 µM) in the test with Sporothrix schenckii; 0.06 µg/mL (≈ 0.0649 µM) with Cryptococcus neoformans; 0.12 µg/mL (≈ 0.13 µM) with Candida albicans; 0.12 µg/mL (≈ 0.13 µM) with Candida parapsilosis.
Regarding `CCOC(=O)CSC1=C(NC(C)C)C(=O)c2ccccc2C1=O`, the MIC was found to be 25 µg/mL (≈ 75 µM) in the test on Enterococcus faecalis (Enterococcus faecalis); 12.5 µg/mL (≈ 37.5 µM) against Trichophyton benhamiae; 50 µg/mL (≈ 150 µM) with Pseudomonas aeruginosa (Pseudomonas aeruginosa); 25 µg/mL (≈ 75 µM) with Escherichia coli (Escherichia coli); 50 µg/mL (≈ 150 µM) with Aspergillus fumigatus; 50 µg/mL (≈ 150 µM) in the test with Klebsiella pneumoniae (Klebsiella pneumoniae). For the same compound, the MIC against Staphylococcus aureus (Staphylococcus aureus) was determined as 12.5 µg/mL (≈ 37.5 µM); against Sporothrix schenckii it was 50 µg/mL (≈ 150 µM); against Cryptococcus neoformans it was 12.5 µg/mL (≈ 37.5 µM); against Candida albicans, 50 µg/mL (≈ 150 µM); against Candida parapsilosis, 25 µg/mL (≈ 75 µM). The IC50 is 20.6 µg/mL (≈ 61.9 µM) in the test with Enterococcus faecalis (setting [1]); 9.8 µg/mL (≈ 29.4 µM) with Trichophyton benhamiae; 35.9 µg/mL (≈ 108 µM) in the test on Pseudomonas aeruginosa (setting [2]); 25 µg/mL (≈ 74.9 µM) in the test with Escherichia coli (setting [3]); 44.9 µg/mL (≈ 135 µM) in the test with Aspergillus fumigatus; 46.9 µg/mL (≈ 141 µM) in the test with Klebsiella pneumoniae (setting [4]). The IC50 with Staphylococcus aureus (setting [5]) amounted to 18.5 µg/mL (≈ 55.4 µM); in the test on Sporothrix schenckii it was 38.6 µg/mL (≈ 116 µM); in the test with Cryptococcus neoformans, 11.3 µg/mL (≈ 33.8 µM); in the test with Candida albicans, 44.3 µg/mL (≈ 133 µM); in the test with Candida parapsilosis, 23.2 µg/mL (≈ 69.7 µM).
As to `CCOC(=O)CSC1=C(Cl)C(=O)c2ccccc2C1=O`, the MIC with Enterococcus faecalis (Enterococcus faecalis) was 12.5 µg/mL (≈ 40.2 µM); against Trichophyton benhamiae, more than 50 µg/mL; with Pseudomonas aeruginosa (Pseudomonas aeruginosa), 50 µg/mL (≈ 161 µM); with Escherichia coli (Escherichia coli), 12.5 µg/mL (≈ 40.2 µM); against Aspergillus fumigatus, more than 50 µg/mL; against Klebsiella pneumoniae (Klebsiella pneumoniae), 50 µg/mL (≈ 161 µM). Moreover, the MIC with Staphylococcus aureus (Staphylococcus aureus) was 12.5 µg/mL (≈ 40.2 µM); against Sporothrix schenckii, 25 µg/mL (≈ 80.4 µM); with Cryptococcus neoformans, 12.5 µg/mL (≈ 40.2 µM); against Candida albicans, more than 50 µg/mL; in the test with Candida parapsilosis it was more than 50 µg/mL. The IC50 in the test on Enterococcus faecalis (setting [1]) was 9.24 µg/mL (≈ 29.7 µM); in the test on Trichophyton benhamiae, more than 50 µg/mL; with Pseudomonas aeruginosa (setting [2]) it was 44.4 µg/mL (≈ 143 µM); in the test on Escherichia coli (setting [3]), 8.56 µg/mL (≈ 27.5 µM); in the test with Aspergillus fumigatus, more than 50 µg/mL; in the test on Klebsiella pneumoniae (setting [4]) it was 33.2 µg/mL (≈ 107 µM). Further, the IC50 with Staphylococcus aureus (setting [5]) was 6.98 µg/mL (≈ 22.5 µM); in the test on Sporothrix schenckii it was 18.7 µg/mL (≈ 60.3 µM); in the test with Cryptococcus neoformans, 10.9 µg/mL (≈ 35.2 µM); in the test on Candida albicans it was more than 50 µg/mL; in the test with Candida parapsilosis, more than 50 µg/mL.
Take GENTAMICIN [listing 2 of 2 here]: the IC50 in the test on Enterococcus faecalis came to 0.62 µg/mL; in the test with Pseudomonas aeruginosa it was 24.64 µg/mL; in the test on Escherichia coli it was 0.11 µg/mL; in the test with Klebsiella pneumoniae, 0.34 µg/mL; in the test on Staphylococcus aureus, 4.46 µg/mL.
